Data as given in ChEMBL document CHEMBL3885861, “Open TG-GATES”.

Organism: Rattus norvegicus
Experiment: Open TG-GATES - Regimen: Single
Assay type: toxicity, organism-based, Sprague-Dawley
Set-up: regimen Single, gender Male, age 6 weeks
Details: in vivo, po, 600 mg/kg, route gavage, dose level High; for APTT / Bas / Eos / Fbg / Hb / Ht / Lym / MCH / MCHC / MCV / Mono / Neu / PT / Plat / RBC / Ret / WBC: tissue Blood; for KIDNEY_L / KIDNEY_R / KIDNEY_TOTAL: tissue Kidney; for LIVER: tissue Liver; for A/G / ALP / ALT / AST / BUN / CRE / Ca / Cl / DBIL / GLC / IP / K / LDH / Na / PL / RALB / TBIL / TC / TG / TP / gamma-GTP: tissue Plasma

## CCOC(=O)[C@H](CCc1ccccc1)N[C@@H](C)C(=O)N1CCC[C@H]1C(=O)O
3 h
  TERMINAL_BW: 218.7 g
  APTT: 16.5 s
  Bas: 0%
  Eos: 1.4%
  Fbg: 212 mg/dL
  Hb: 13.3 g/dL
  Ht: 40.4%
  Lym: 74%
  MCH: 21.6 pg
  MCHC: 32.9%
  MCV: 65.9 fL
  Mono: 9.8%
  Neu: 14.6%
  PT: 12 s
  Plat: 109.7 x10_4/uL
  RBC: 614.2 x10_4/ul
  Ret: 8.9%
  WBC: 93.4 x10_2/uL
  KIDNEY_L: 1 g
  KIDNEY_R: 1 g
  KIDNEY_TOTAL: 1.9 g
  LIVER: 10 g
  A/G: 2
  ALP: 719.2 IU/L
  ALT: 83.4 IU/L
  AST: 70.2 IU/L
  BUN: 22.8 mg/dL
  CRE: 0.6 mg/dL
  Ca: 10.3 mg/dL
  Cl: 106.8 meq/L
  DBIL: 0.022 mg/dL
  GLC: 201 mg/dL
  IP: 9 mg/dL
  K: 4.9 meq/L
  LDH: 103.4 IU/L
  Na: 138.6 meq/L
  PL: 125.4 mg/dL
  RALB: 3.6 g/dL
  TBIL: 0.3 mg/dL
  TC: 73.2 mg/dL
  TG: 59.4 mg/dL
  TP: 5.4 g/dL
  gamma-GTP: 2.4 IU/L
6 h
  TERMINAL_BW: 215.5 g
  APTT: 16.6 s
  Bas: 0%
  Eos: 1.2%
  Fbg: 211.2 mg/dL
  Hb: 13.3 g/dL
  Ht: 40.9%
  Lym: 75.4%
  MCH: 21.2 pg
  MCHC: 32.7%
  MCV: 64.8 fL
  Mono: 7.4%
  Neu: 16.2%
  PT: 11.9 s
  Plat: 113.3 x10_4/uL
  RBC: 632.4 x10_4/ul
  Ret: 8.3%
  WBC: 96.5 x10_2/uL
  KIDNEY_L: 1 g
  KIDNEY_R: 1 g
  KIDNEY_TOTAL: 2 g
  LIVER: 9.1 g
  A/G: 2.2
  ALP: 701.6 IU/L
  ALT: 82.8 IU/L
  AST: 75.8 IU/L
  BUN: 28.2 mg/dL
  CRE: 0.6 mg/dL
  Ca: 10.5 mg/dL
  Cl: 107.2 meq/L
  DBIL: 0.022 mg/dL
  GLC: 207 mg/dL
  IP: 9.5 mg/dL
  K: 5.2 meq/L
  LDH: 100.8 IU/L
  Na: 138 meq/L
  PL: 126.2 mg/dL
  RALB: 3.6 g/dL
  TBIL: 0.5 mg/dL
  TC: 68.2 mg/dL
  TG: 36.8 mg/dL
  TP: 5.2 g/dL
  gamma-GTP: 1.6 IU/L
9 h
  TERMINAL_BW: 218.5 g
  APTT: 16.2 s
  Bas: 0%
  Eos: 1%
  Fbg: 208.8 mg/dL
  Hb: 12.7 g/dL
  Ht: 39.2%
  Lym: 78.6%
  MCH: 22.1 pg
  MCHC: 32.4%
  MCV: 68.3 fL
  Mono: 4.2%
  Neu: 16.2%
  PT: 11.6 s
  Plat: 111.9 x10_4/uL
  RBC: 575.2 x10_4/ul
  Ret: 9.9%
  WBC: 91.7 x10_2/uL
  KIDNEY_L: 1 g
  KIDNEY_R: 1 g
  KIDNEY_TOTAL: 1.9 g
  LIVER: 8.5 g
  A/G: 1.8
  ALP: 827.2 IU/L
  ALT: 56.2 IU/L
  AST: 65.6 IU/L
  BUN: 40.8 mg/dL
  CRE: 0.5 mg/dL
  Ca: 10.9 mg/dL
  Cl: 109 meq/L
  DBIL: 0.032 mg/dL
  GLC: 196.4 mg/dL
  IP: 11.1 mg/dL
  K: 5.8 meq/L
  LDH: 66 IU/L
  Na: 138.8 meq/L
  PL: 133.8 mg/dL
  RALB: 3.4 g/dL
  TBIL: 0.4 mg/dL
  TC: 76 mg/dL
  TG: 26 mg/dL
  TP: 5.3 g/dL
  gamma-GTP: 1.8 IU/L
24 h
  TERMINAL_BW: 231.8 g
  APTT: 16.2 s
  Bas: 0%
  Eos: 1.2%
  Fbg: 215.6 mg/dL
  Hb: 12.8 g/dL
  Ht: 38.7%
  Lym: 72.2%
  MCH: 21.6 pg
  MCHC: 33%
  MCV: 65.4 fL
  Mono: 13%
  Neu: 13.8%
  PT: 10.9 s
  Plat: 115.6 x10_4/uL
  RBC: 592.6 x10_4/ul
  Ret: 9.2%
  WBC: 103.4 x10_2/uL
  KIDNEY_L: 1 g
  KIDNEY_R: 1 g
  KIDNEY_TOTAL: 2 g
  LIVER: 12.5 g
  A/G: 2
  ALP: 1036 IU/L
  ALT: 34.4 IU/L
  AST: 60 IU/L
  BUN: 20 mg/dL
  CRE: 0.5 mg/dL
  Ca: 11.3 mg/dL
  Cl: 104.4 meq/L
  DBIL: 0 mg/dL
  GLC: 207.4 mg/dL
  IP: 8.9 mg/dL
  K: 4.8 meq/L
  LDH: 101.6 IU/L
  Na: 138.6 meq/L
  PL: 170.6 mg/dL
  RALB: 3.8 g/dL
  TBIL: 0.4 mg/dL
  TC: 89.6 mg/dL
  TG: 132.4 mg/dL
  TP: 5.6 g/dL
  gamma-GTP: 2.2 IU/L
